These results are taken from patent publication US9340590B2 (priority 2011, dated 2016).

Molecules are shown by their SMILES. Positions of bridges follow the written chain, without caps; N, C: chain ends. Non-standard residues stand in square brackets, D forms with d. Residues, ends and D or L forms follow the SMILES beside them. Phe(4-NH2) = Nc1ccc(C[C@H](N)C(=O)O)cc1; Arg(Me2s) = CN=C(NC)NCCC[C@H](N)C(=O)O; Arg(Me) = CNC(=N)NCCC[C@H](N)C(=O)O; hArg = N=C(N)NCCCC[C@H](N)C(=O)O; 3Pal = N[C@@H](Cc1cccnc1)C(=O)O; Orn = NCCC[C@H](N)C(=O)O

What all share (test): cell-based
The target of one test is hNav1.3 (Homo sapiens, UniProt Q9NY46). The settings on record: IonWorks Quattro, use-dependent block, hNav1.3; read-out: IWQ Use Nav1.3. On the technique in general: The patch-clamp technique gives a direct electrical read-out from membranes.
Another test deals with hNav1.7 (Homo sapiens, UniProt Q15858). The format is cell-based. The settings on record: IonWorks Quattro, use-dependent block, hNav1.7; read-out: IWQ Use Nav1.7.
hNav1.7, sequence (Q15858 whole entry, looked up): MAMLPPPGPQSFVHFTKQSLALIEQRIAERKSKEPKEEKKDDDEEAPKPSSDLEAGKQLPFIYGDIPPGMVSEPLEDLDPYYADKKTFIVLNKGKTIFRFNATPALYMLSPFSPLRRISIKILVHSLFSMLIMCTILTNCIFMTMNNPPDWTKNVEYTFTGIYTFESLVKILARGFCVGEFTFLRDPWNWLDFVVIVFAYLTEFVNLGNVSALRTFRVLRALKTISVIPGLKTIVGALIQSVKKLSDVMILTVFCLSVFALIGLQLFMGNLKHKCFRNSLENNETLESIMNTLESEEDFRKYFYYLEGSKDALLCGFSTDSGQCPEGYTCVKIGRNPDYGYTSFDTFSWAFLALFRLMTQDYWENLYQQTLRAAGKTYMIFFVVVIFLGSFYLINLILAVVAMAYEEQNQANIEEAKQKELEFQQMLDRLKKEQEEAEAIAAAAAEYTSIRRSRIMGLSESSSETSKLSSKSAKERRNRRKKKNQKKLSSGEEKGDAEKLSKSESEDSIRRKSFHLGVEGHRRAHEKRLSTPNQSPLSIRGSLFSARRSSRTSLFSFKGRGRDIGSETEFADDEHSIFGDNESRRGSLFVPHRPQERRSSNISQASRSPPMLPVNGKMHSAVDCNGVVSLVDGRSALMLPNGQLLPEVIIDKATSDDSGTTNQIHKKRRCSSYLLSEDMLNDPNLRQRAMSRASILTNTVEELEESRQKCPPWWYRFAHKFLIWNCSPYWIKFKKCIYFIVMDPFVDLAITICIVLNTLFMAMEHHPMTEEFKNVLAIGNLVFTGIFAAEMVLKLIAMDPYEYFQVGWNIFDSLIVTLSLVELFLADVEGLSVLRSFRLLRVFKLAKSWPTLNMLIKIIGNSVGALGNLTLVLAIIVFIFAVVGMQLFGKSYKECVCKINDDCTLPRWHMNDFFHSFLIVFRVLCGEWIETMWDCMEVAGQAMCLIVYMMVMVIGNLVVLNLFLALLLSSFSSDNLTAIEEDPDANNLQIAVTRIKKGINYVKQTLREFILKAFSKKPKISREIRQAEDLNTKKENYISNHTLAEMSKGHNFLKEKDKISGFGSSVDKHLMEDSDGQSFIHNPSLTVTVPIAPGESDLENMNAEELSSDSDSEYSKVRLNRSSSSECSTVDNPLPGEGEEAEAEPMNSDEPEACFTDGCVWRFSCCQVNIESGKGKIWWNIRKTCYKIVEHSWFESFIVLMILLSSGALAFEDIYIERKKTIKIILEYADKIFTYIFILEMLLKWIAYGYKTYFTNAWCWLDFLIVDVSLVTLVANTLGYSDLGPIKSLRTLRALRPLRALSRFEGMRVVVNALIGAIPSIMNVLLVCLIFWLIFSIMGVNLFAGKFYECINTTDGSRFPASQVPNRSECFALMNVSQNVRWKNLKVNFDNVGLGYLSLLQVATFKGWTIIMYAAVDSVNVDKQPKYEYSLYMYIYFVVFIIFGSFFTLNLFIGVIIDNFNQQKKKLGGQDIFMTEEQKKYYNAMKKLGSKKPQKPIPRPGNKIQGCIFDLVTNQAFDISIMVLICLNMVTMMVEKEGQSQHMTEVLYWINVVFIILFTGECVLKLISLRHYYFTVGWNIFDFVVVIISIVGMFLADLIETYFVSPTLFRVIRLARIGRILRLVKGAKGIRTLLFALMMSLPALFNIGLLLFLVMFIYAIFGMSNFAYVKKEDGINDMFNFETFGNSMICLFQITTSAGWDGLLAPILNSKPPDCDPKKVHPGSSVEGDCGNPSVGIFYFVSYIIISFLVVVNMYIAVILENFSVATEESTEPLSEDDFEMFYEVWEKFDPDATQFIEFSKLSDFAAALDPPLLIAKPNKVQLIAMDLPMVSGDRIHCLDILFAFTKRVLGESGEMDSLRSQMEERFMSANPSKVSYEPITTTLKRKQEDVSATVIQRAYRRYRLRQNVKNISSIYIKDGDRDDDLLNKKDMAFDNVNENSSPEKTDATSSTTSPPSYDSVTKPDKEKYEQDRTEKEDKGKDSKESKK
A further test has as its target hNav1.5 (Homo sapiens, UniProt Q14524). The settings on record: IonWorks Quattro, use-dependent block, hNav1.5; read-out: IWQ Use Nav1.5.

hNav1.5, sequence (Q14524 whole entry, looked up): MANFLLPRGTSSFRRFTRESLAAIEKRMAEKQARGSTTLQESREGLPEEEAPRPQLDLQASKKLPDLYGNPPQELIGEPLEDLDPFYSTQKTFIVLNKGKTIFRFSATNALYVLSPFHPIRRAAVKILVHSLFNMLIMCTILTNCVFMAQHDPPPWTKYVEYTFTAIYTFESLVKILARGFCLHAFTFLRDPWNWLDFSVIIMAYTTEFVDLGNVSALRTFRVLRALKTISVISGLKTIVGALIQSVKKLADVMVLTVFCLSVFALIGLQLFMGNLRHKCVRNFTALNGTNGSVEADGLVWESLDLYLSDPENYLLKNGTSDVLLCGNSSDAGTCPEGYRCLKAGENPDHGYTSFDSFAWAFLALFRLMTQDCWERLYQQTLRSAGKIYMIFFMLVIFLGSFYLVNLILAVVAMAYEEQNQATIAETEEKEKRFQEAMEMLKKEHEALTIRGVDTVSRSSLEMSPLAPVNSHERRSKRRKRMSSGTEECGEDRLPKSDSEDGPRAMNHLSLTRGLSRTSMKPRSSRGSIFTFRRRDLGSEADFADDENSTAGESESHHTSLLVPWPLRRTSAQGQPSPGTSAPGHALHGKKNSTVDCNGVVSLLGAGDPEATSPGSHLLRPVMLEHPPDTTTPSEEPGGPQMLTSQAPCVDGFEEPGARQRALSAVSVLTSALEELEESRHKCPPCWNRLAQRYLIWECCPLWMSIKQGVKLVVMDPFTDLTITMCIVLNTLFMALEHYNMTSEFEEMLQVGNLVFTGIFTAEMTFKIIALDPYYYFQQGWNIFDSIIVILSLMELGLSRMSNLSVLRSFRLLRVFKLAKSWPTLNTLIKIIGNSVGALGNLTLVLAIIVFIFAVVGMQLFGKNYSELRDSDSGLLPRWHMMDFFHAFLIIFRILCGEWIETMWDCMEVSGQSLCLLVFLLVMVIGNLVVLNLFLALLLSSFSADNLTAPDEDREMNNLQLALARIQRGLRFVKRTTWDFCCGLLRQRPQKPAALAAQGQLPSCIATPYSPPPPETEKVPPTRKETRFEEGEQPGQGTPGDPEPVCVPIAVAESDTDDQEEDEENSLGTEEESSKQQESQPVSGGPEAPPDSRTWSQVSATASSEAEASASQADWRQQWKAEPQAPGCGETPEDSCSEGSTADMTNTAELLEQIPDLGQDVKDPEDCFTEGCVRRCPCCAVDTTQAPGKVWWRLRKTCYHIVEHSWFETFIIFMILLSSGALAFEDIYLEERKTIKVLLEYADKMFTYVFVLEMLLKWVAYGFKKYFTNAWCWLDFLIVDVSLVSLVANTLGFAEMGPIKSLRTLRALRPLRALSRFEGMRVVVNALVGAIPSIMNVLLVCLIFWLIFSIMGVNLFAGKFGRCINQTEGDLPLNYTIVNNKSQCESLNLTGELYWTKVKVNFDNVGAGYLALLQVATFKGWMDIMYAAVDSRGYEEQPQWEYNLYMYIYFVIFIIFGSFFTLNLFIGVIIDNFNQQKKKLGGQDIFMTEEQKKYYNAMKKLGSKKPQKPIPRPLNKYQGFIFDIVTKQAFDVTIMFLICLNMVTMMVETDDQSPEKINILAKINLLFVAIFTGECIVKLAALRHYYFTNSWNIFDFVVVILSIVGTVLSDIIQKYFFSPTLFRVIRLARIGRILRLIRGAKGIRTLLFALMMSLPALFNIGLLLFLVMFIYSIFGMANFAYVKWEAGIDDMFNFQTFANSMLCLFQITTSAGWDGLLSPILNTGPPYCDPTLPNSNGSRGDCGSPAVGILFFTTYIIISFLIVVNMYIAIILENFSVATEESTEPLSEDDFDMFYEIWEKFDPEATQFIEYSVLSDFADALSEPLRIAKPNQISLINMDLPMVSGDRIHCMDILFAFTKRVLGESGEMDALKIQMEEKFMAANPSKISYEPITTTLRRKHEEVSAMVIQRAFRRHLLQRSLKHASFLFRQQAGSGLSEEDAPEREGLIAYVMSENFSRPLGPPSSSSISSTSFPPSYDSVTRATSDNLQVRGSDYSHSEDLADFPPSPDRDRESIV

On to `CC[C@H](C)[C@@H]1NC(=O)[C@@H]2CSSC[C@@H]3NC(=O)[C@H](C(C)C)NC(=O)[C@H](CC(C)C)NC(=O)[C@H](CC(N)=O)NC(=O)[C@@H]4CCCN4C(=O)[C@H](CCCNC(=N)N)NC(=O)[C@H](CSSC[C@H](NC(=O)[C@@H](N)CC(=O)O)C(=O)N[C@@H](CC(C)C)C(=O)NCC(=O)N[C@@H](C)C(=O)N[C@@H](CCSC)C(=O)N[C@@H](CCCNC(=N)N)C(=O)N[C@@H](CCCCN)C(=O)N2)NC(=O)[C@H](CSSC[C@@H](C(=O)N[C@@H](CCCCN)C(=O)N[C@@H](Cc2ccc(O)cc2)C(=O)N[C@H](C(=O)N[C@@H](Cc2ccccc2)C(N)=O)C(C)C)NC(=O)[C@H](Cc2c[nH]c4ccccc24)NC(=O)[C@H](CCC(N)=O)NC(=O)[C@H](Cc2c[nH]cn2)NC(=O)[C@H]([C@@H](C)O)NC(=O)[C@H](CCCNC(=N)N)NC(=O)[C@H](CO)NC3=O)NC(=O)[C@H](CCCCN)NC(=O)[C@H](CC(=O)O)NC(=O)[C@H](CC(N)=O)NC(=O)[C@H](CC(=O)O)NC(=O)[C@@H]2CCCN2C1=O` [compound 739] (H-DCLGAMRKCIPDNDKCCRPNLVCSRTHQWCKYVF-NH2; disulfide 2-17, 9-23, 16-30), for which the IC50 on hNav1.3 is 2200 nM; at hNav1.7, 630 nM; on hNav1.5 it was 20500 nM.
Regarding `CC[C@H](C)[C@@H]1NC(=O)[C@@H]2CSSC[C@@H]3NC(=O)[C@H](C(C)C)NC(=O)[C@H](CC(C)C)NC(=O)[C@H](CC(N)=O)NC(=O)[C@@H]4CCCN4C(=O)[C@H](CCCNC(=N)N)NC(=O)[C@H](CSSC[C@H](NC(=O)[C@@H](N)CC(=O)O)C(=O)N[C@@H](CC(C)C)C(=O)NCC(=O)N[C@@H](C)C(=O)N[C@@H](CCSC)C(=O)N[C@@H](CCCNC(=N)N)C(=O)N[C@@H](CCCCN)C(=O)N2)NC(=O)[C@H](CSSC[C@@H](C(=O)N[C@@H](CCCCN)C(=O)N[C@@H](Cc2ccc(O)cc2)C(=O)N[C@H](C(=O)N[C@@H](Cc2ccccc2)C(N)=O)C(C)C)NC(=O)[C@H](Cc2c[nH]c4ccccc24)NC(=O)[C@H](Cc2cccnc2)NC(=O)[C@H](Cc2c[nH]cn2)NC(=O)[C@H]([C@@H](C)O)NC(=O)[C@H](CCCNC(=N)N)NC(=O)[C@H](CO)NC3=O)NC(=O)[C@H](CCCCN)NC(=O)[C@H](CC(=O)O)NC(=O)[C@H](CC(N)=O)NC(=O)[C@H](CC(=O)O)NC(=O)[C@@H]2CCCN2C1=O` [compound 740] (H-DCLGAMRKCIPDNDKCCRPNLVCSRTH[3Pal]WCKYVF-NH2; disulfide 2-17, 9-23, 16-30), the IC50 is above 5000 nM on hNav1.3, 1500 nM at hNav1.7 and 31100 nM at hNav1.5.
For `CC[C@H](C)[C@@H]1NC(=O)[C@@H]2CSSC[C@@H]3NC(=O)[C@H](C(C)C)NC(=O)[C@H](CC(C)C)NC(=O)[C@H](CC(N)=O)NC(=O)[C@@H]4CCCN4C(=O)[C@H](CCCNC(=N)N)NC(=O)[C@H](CSSC[C@H](NC(=O)[C@@H](N)CC(=O)O)C(=O)N[C@@H](CC(C)C)C(=O)NCC(=O)N[C@@H](C)C(=O)N[C@@H](CCSC)C(=O)N[C@@H](CCCNC(=N)N)C(=O)N[C@@H](CCCCN)C(=O)N2)NC(=O)[C@H](CSSC[C@@H](C(=O)N[C@@H](CCCCN)C(=O)N[C@@H](Cc2ccc(O)cc2)C(=O)N[C@H](C(=O)N[C@@H](Cc2ccccc2)C(N)=O)C(C)C)NC(=O)[C@H](Cc2c[nH]c4ccccc24)NC(=O)[C@H](Cc2ccc(N)cc2)NC(=O)[C@H](Cc2c[nH]cn2)NC(=O)[C@H]([C@@H](C)O)NC(=O)[C@H](CCCNC(=N)N)NC(=O)[C@H](CO)NC3=O)NC(=O)[C@H](CCCCN)NC(=O)[C@H](CC(=O)O)NC(=O)[C@H](CC(N)=O)NC(=O)[C@H](CC(=O)O)NC(=O)[C@@H]2CCCN2C1=O` [compound 741] (H-DCLGAMRKCIPDNDKCCRPNLVCSRTH[Phe(4-NH2)]WCKYVF-NH2; disulfide 2-17, 9-23, 16-30) the same measures were 2300 nM, 1100 nM and 24400 nM.
The corresponding values for `CC[C@H](C)[C@@H]1NC(=O)[C@@H]2CSSC[C@@H]3NC(=O)[C@H](C(C)C)NC(=O)[C@H](CC(C)C)NC(=O)[C@H](CC(N)=O)NC(=O)[C@@H]4CCCN4C(=O)[C@H](CCCNC(=N)N)NC(=O)[C@H](CSSC[C@H](NC(=O)[C@@H](N)CC(=O)O)C(=O)N[C@@H](CC(C)C)C(=O)NCC(=O)N[C@@H](C)C(=O)N[C@@H](CCSC)C(=O)N[C@@H](CCCNC(=N)N)C(=O)N[C@@H](CCCCN)C(=O)N2)NC(=O)[C@H](CSSC[C@@H](C(=O)N[C@@H](CCCCN)C(=O)N[C@@H](Cc2ccc(O)cc2)C(=O)N[C@H](C(=O)N[C@@H](Cc2ccccc2)C(N)=O)C(C)C)NC(=O)[C@H](Cc2c[nH]c4ccccc24)NC(=O)[C@H](CCCCNC(C)=O)NC(=O)[C@H](Cc2c[nH]cn2)NC(=O)[C@H]([C@@H](C)O)NC(=O)[C@H](CCCNC(=N)N)NC(=O)[C@H](CO)NC3=O)NC(=O)[C@H](CCCCN)NC(=O)[C@H](CC(=O)O)NC(=O)[C@H](CC(N)=O)NC(=O)[C@H](CC(=O)O)NC(=O)[C@@H]2CCCN2C1=O` [compound 742] (H-DCLGAMRKCIPDNDKCCRPNLVCSRTHK(Ac)WCKYVF-NH2; disulfide 2-17, 9-23, 16-30) are 2500 nM, 1100 nM and 22700 nM.
The corresponding values for `CC[C@H](C)[C@@H]1NC(=O)[C@@H]2CSSC[C@@H]3NC(=O)[C@H](C(C)C)NC(=O)[C@H](CC(C)C)NC(=O)[C@H](CC(N)=O)NC(=O)[C@@H]4CCCN4C(=O)[C@H](CCCNC(=N)N)NC(=O)[C@H](CSSC[C@H](NC(=O)[C@@H](N)CC(=O)O)C(=O)N[C@@H](CC(C)C)C(=O)NCC(=O)N[C@@H](C)C(=O)N[C@@H](CCSC)C(=O)N[C@@H](CCCNC(=N)N)C(=O)N[C@@H](CCCCN)C(=O)N2)NC(=O)[C@H](CSSC[C@@H](C(=O)N[C@@H](CCCCN)C(=O)N[C@@H](Cc2ccc(O)cc2)C(=O)N[C@H](C(=O)N[C@@H](Cc2ccccc2)C(N)=O)C(C)C)NC(=O)[C@H](Cc2c[nH]c4ccccc24)NC(=O)[C@H](CCCNC(=NC)NC)NC(=O)[C@H](Cc2c[nH]cn2)NC(=O)[C@H]([C@@H](C)O)NC(=O)[C@H](CCCNC(=N)N)NC(=O)[C@H](CO)NC3=O)NC(=O)[C@H](CCCCN)NC(=O)[C@H](CC(=O)O)NC(=O)[C@H](CC(N)=O)NC(=O)[C@H](CC(=O)O)NC(=O)[C@@H]2CCCN2C1=O` [compound 743] (H-DCLGAMRKCIPDNDKCCRPNLVCSRTH[Arg(Me2s)]WCKYVF-NH2; disulfide 2-17, 9-23, 16-30) are 1100 nM, 220 nM and 26500 nM.
`CC[C@H](C)[C@@H]1NC(=O)[C@@H]2CSSC[C@@H]3NC(=O)[C@H](C(C)C)NC(=O)[C@H](CC(C)C)NC(=O)[C@H](CC(N)=O)NC(=O)[C@@H]4CCCN4C(=O)[C@H](CCCNC(=N)N)NC(=O)[C@H](CSSC[C@H](NC(=O)[C@@H](N)CC(=O)O)C(=O)N[C@@H](CC(C)C)C(=O)NCC(=O)N[C@@H](C)C(=O)N[C@@H](CCSC)C(=O)N[C@@H](CCCNC(=N)N)C(=O)N[C@@H](CCCCN)C(=O)N2)NC(=O)[C@H](CSSC[C@@H](C(=O)N[C@@H](CCCCN)C(=O)N[C@@H](Cc2ccc(O)cc2)C(=O)N[C@H](C(=O)N[C@@H](Cc2ccccc2)C(N)=O)C(C)C)NC(=O)[C@H](Cc2c[nH]c4ccccc24)NC(=O)[C@H](CCCCNC(=N)N)NC(=O)[C@H](Cc2c[nH]cn2)NC(=O)[C@H]([C@@H](C)O)NC(=O)[C@H](CCCNC(=N)N)NC(=O)[C@H](CO)NC3=O)NC(=O)[C@H](CCCCN)NC(=O)[C@H](CC(=O)O)NC(=O)[C@H](CC(N)=O)NC(=O)[C@H](CC(=O)O)NC(=O)[C@@H]2CCCN2C1=O` [compound 744] (H-DCLGAMRKCIPDNDKCCRPNLVCSRTH[hArg]WCKYVF-NH2; disulfide 2-17, 9-23, 16-30): the IC50 turned out to be 820 nM on hNav1.3, 470 nM on hNav1.7 and 39700 nM on hNav1.5.
The corresponding values for `CC[C@H](C)[C@@H]1NC(=O)[C@@H]2CSSC[C@@H]3NC(=O)[C@H](C(C)C)NC(=O)[C@H](CC(C)C)NC(=O)[C@H](CC(N)=O)NC(=O)[C@@H]4CCCN4C(=O)[C@H](CCCNC(=N)N)NC(=O)[C@H](CSSC[C@H](NC(=O)[C@@H](N)CC(=O)O)C(=O)N[C@@H](CC(C)C)C(=O)NCC(=O)N[C@@H](C)C(=O)N[C@@H](CCSC)C(=O)N[C@@H](CCCNC(=N)N)C(=O)N[C@@H](CCCCN)C(=O)N2)NC(=O)[C@H](CSSC[C@@H](C(=O)N[C@@H](CCCCN)C(=O)N[C@@H](Cc2ccc(O)cc2)C(=O)N[C@H](C(=O)N[C@@H](Cc2ccccc2)C(N)=O)C(C)C)NC(=O)[C@H](Cc2c[nH]c4ccccc24)NC(=O)[C@H](CCCNC(=N)NC)NC(=O)[C@H](Cc2c[nH]cn2)NC(=O)[C@H]([C@@H](C)O)NC(=O)[C@H](CCCNC(=N)N)NC(=O)[C@H](CO)NC3=O)NC(=O)[C@H](CCCCN)NC(=O)[C@H](CC(=O)O)NC(=O)[C@H](CC(N)=O)NC(=O)[C@H](CC(=O)O)NC(=O)[C@@H]2CCCN2C1=O` [compound 745] (H-DCLGAMRKCIPDNDKCCRPNLVCSRTH[Arg(Me)]WCKYVF-NH2; disulfide 2-17, 9-23, 16-30) are 500 nM, 250 nM and 40000 nM.
Turning to `CC[C@H](C)[C@@H]1NC(=O)[C@@H]2CSSC[C@@H]3NC(=O)[C@H](C(C)C)NC(=O)[C@H](CC(C)C)NC(=O)[C@H](CC(N)=O)NC(=O)[C@@H]4CCCN4C(=O)[C@H](CCCNC(=N)N)NC(=O)[C@H](CSSC[C@H](NC(=O)[C@@H](N)CC(=O)O)C(=O)N[C@@H](CC(C)C)C(=O)NCC(=O)N[C@@H](C)C(=O)N[C@@H](CCSC)C(=O)N[C@@H](CCCNC(=N)N)C(=O)N[C@@H](CCCCN)C(=O)N2)NC(=O)[C@H](CSSC[C@@H](C(=O)N[C@@H](CCCCN)C(=O)N[C@@H](Cc2ccc(O)cc2)C(=O)N[C@H](C(=O)N[C@@H](Cc2ccccc2)C(N)=O)C(C)C)NC(=O)[C@H](Cc2c[nH]c4ccccc24)NC(=O)[C@H](CCCN)NC(=O)[C@H](Cc2c[nH]cn2)NC(=O)[C@H]([C@@H](C)O)NC(=O)[C@H](CCCNC(=N)N)NC(=O)[C@H](CO)NC3=O)NC(=O)[C@H](CCCCN)NC(=O)[C@H](CC(=O)O)NC(=O)[C@H](CC(N)=O)NC(=O)[C@H](CC(=O)O)NC(=O)[C@@H]2CCCN2C1=O` [compound 746] (H-DCLGAMRKCIPDNDKCCRPNLVCSRTH[Orn]WCKYVF-NH2; disulfide 2-17, 9-23, 16-30), the IC50 was 760 nM on hNav1.3, 290 nM at hNav1.7 and 20700 nM at hNav1.5.
